# Results taken from article PMC12113356, “Novel Anti-MRSA Peptide from Mangrove-Derived Virgibacillus chiguensis FN33 Supported by Genomics and Molecular Dynamics” (Marine Drugs, 2025).
# Like-named read-outs stand apart in the source and are kept apart here. Peptide text beside a SMILES is read from it.
# Experiments:
# MRSA strain 2468 [1] = assay: Scanning electron microscopy of treated cells; type: cell-based, Staphylococcus aureus; conditions: 1× MIC, 16 h / 18 h (figure legend), 30,000× magnification
# Source text: (§1) SEM was used to examine morphological alterations in the bacterial cells. […] This appearance reflected their natural cellular structure.
# (§2) Figure 5 SEM images captured at 30,000× magnification. […] The non-treatment condition served as a negative control.
# S. aureus TISTR 517 [2] = assay: Scanning electron microscopy of treated cells; type: cell-based, Staphylococcus aureus; conditions: 1× MIC, 16 h / 18 h (figure legend), 30,000× magnification
# Source text: as §1, §2
# MRSA strain 2468 [3] = assay: Thermal stability (activity retention by agar well diffusion); type: physicochemical, Staphylococcus aureus; conditions: for Antibacterial Activity Retention of FN33 AMP (%) Against MRSA Strain 2468: 32 µg/mL in water, agar well diffusion read-out, % of untreated sample, mean ± SD, n = 3
# Method: (§3) The AMP solution was prepared in sterile purified water and adjusted to a final concentration of 32 µg/mL. To determine thermal stability, the AMP was exposed to temperatures of 30, 40, 60, 80, and 100 °C, as well as to autoclaving at 121 °C and 15 psi for 15 and 30 min. The susceptibility of the AMP to enzymatic degradation was examined by treating it with proteinase K, trypsin, and α-chymotrypsin (each at 1 mg/mL, Sigma-Aldrich, Warren, MI, USA), representing different proteolytic mechanisms. The AMP’s compatibility with surfactants was assessed by incubating it with 1% SDS, 1% CTAB, and 1% Triton X-100 (AppliChem GmbH, Darmstadt, Germany). Additionally, the effect of pH variations on AMP integrity was tested by adjusting the solution to pH 1, 4, 8, 10, and 14. The pH was neutralized to the original pH after incubation before conducting antibacterial activity tests. […] Stability data were expressed as residual activity percentages relative to the untreated sample (mean ± SD), and statistical significance was evaluated using two-way ANOVA and Tukey’s post hoc test, with a p-value < 0.05 considered significant.
# MRSA strain 2468 [4] = assay: Time-kill assay; type: cell-based, Staphylococcus aureus; conditions: for bacterial reduction rate: triplicate
# Method: (§4) The time–kill assay of FN33 AMP was conducted by measuring bacterial viability (log CFU/mL) at different time points. […] In the untreated group, bacterial growth increased over time, with a growth rate of 0.292 log CFU/h for S. aureus TISTR 517 and 0.2884 log CFU/h for MRSA strain 2468. […] However, complete eradication of S. aureus TISTR 517 was not achieved at either concentration, even after 24 h of treatment. […] The bactericidal effect was confirmed by complete eradication within 20 h of treatment. […] The killing rate against MRSA strain 2468 was faster than that observed for S. aureus TISTR 517 at all concentrations.
# (§5) Error bars represent the standard deviation of triplicate experiments.
# S. aureus TISTR 517 [5] = assay: Time-kill assay; type: cell-based, Staphylococcus aureus; conditions: for bacterial reduction rate: triplicate
# Method: as §4, §5
# trypsin = type: in vitro ADME; conditions: 32 µg/mL, trypsin 1 mg/mL, agar well diffusion read-out vs MRSA strain 2468, % of untreated sample, mean ± SD, n = 3
# Method: as §3
# [6] = DPPH radical-scavenging assay; conditions: 0.1 mM DPPH, 25 °C, 30 min in darkness, absorbance 517 nm; mean ± SD, n = 3
# Method: A 200 μL sample or ascorbic acid (Gammaco Ltd., Bangkok, Thailand) was added to 2 mL of 0.1 mM DPPH solution (Merck Ltd., Bangkok, Thailand) and incubated at 25 °C in darkness for 30 min. The DPPH color change from purple to pale yellow was observed, and the absorbance at 517 nm was measured using a UV–visible spectrophotometer.
# MRSA strain 2468 [7] = assay: Compatibility with surfactants (activity retention by agar well diffusion); type: physicochemical, Staphylococcus aureus; conditions: 32 µg/mL, agar well diffusion read-out, % of untreated sample, mean ± SD, n = 3
# Method: as §3
smiles,measurement,setting,value
CC(C)C[C@H](NC(=O)[C@H](CC(=O)O)NC(=O)[C@H](CS)NC(=O)[C@H](Cc1c[nH]cn1)NC(=O)[C@H](CS)NC(=O)[C@@H]1CCCN1C(=O)[C@@H](NC(=O)[C@H](CC(C)C)NC(=O)[C@H](CS)NC(=O)CNC(=O)[C@H](Cc1c[nH]c2ccccc12)NC(=O)[C@@H](NC(=O)[C@H](CC(=O)O)NC(=O)[C@@H](NC(=O)CNC(=O)[C@H](CS)NC(=O)CNC(=O)CNC(=O)[C@@H](N)CCC(=O)O)C(C)C)[C@@H](C)O)[C@@H](C)O)C(=O)N[C@@H](Cc1ccccc1)C(=O)N[C@@H](CS)C(=O)N[C@H](C(=O)N[C@H](C(=O)O)[C@@H](C)O)[C@@H](C)O [FN33 AMP] (H-EGGCGVDTWGCLTPCHCDLFCTT-OH),morphological changes under SEM,MRSA strain 2468 [1],greater number of completely lysed cells
same,morphological changes under SEM,S. aureus TISTR 517 [2],dented and rough surface with fewer lysed cells
same,Antibacterial Activity Retention of FN33 AMP (%) Against MRSA Strain 2468,"MRSA strain 2468 [3]; 30 °C, 1 h",100.00 ± 0.66%
same,Antibacterial Activity Retention of FN33 AMP (%) Against MRSA Strain 2468,"MRSA strain 2468 [3]; 30 °C, 6 h",100.00 ± 0.17%
same,Antibacterial Activity Retention of FN33 AMP (%) Against MRSA Strain 2468,"MRSA strain 2468 [3]; 30 °C, 12 h",99.79 ± 0.47%
same,Antibacterial Activity Retention of FN33 AMP (%) Against MRSA Strain 2468,"MRSA strain 2468 [3]; 40 °C, 1 h",100.08 ± 0.48%
same,Antibacterial Activity Retention of FN33 AMP (%) Against MRSA Strain 2468,"MRSA strain 2468 [3]; 40 °C, 6 h",100.02 ± 0.35%
same,Antibacterial Activity Retention of FN33 AMP (%) Against MRSA Strain 2468,"MRSA strain 2468 [3]; 40 °C, 12 h",100.23 ± 0.28%
same,Antibacterial Activity Retention of FN33 AMP (%) Against MRSA Strain 2468,"MRSA strain 2468 [3]; 60 °C, 1 h",98.58 ± 1.74%
same,Antibacterial Activity Retention of FN33 AMP (%) Against MRSA Strain 2468,"MRSA strain 2468 [3]; 60 °C, 6 h","93.53 ± 1.27 *^,† %"
same,Antibacterial Activity Retention of FN33 AMP (%) Against MRSA Strain 2468,"MRSA strain 2468 [3]; 60 °C, 12 h","86.98 ± 0.79 *^,† %"
same,Antibacterial Activity Retention of FN33 AMP (%) Against MRSA Strain 2468,"MRSA strain 2468 [3]; 80 °C, 1 h",95.17 ± 0.43 %
same,Antibacterial Activity Retention of FN33 AMP (%) Against MRSA Strain 2468,"MRSA strain 2468 [3]; 80 °C, 6 h","90.91 ± 0.26 *^,† %"
same,Antibacterial Activity Retention of FN33 AMP (%) Against MRSA Strain 2468,"MRSA strain 2468 [3]; 80 °C, 12 h","82.46 ± 0.55 *^,† %"
same,Antibacterial Activity Retention of FN33 AMP (%) Against MRSA Strain 2468,"MRSA strain 2468 [3]; 100 °C, 1 h",90.83 ± 0.67 %
same,Antibacterial Activity Retention of FN33 AMP (%) Against MRSA Strain 2468,"MRSA strain 2468 [3]; 100 °C, 6 h","83.38 ± 0.83 *^,† %"
same,Antibacterial Activity Retention of FN33 AMP (%) Against MRSA Strain 2468,"MRSA strain 2468 [3]; 100 °C, 12 h","79.97 ± 0.06 *^,† %"
same,Antibacterial Activity Retention of FN33 AMP (%) Against MRSA Strain 2468,"MRSA strain 2468 [3]; autoclave 121 °C and 15 psi, 15 min",72.82 ± 0.53 %
same,Antibacterial Activity Retention of FN33 AMP (%) Against MRSA Strain 2468,"MRSA strain 2468 [3]; autoclave 121 °C and 15 psi, 30 min","65.87 ± 0.82 *^,† %"
same,activity lost due to elevated temperatures,"MRSA strain 2468 [3]; 60 °C, 80 °C and 100 °C, over 12 h",up to 20%
same,bacterial reduction rate,MRSA strain 2468 [4]; 1× MIC,0.1519 log CFU/h
same,time to eradication (no detectable bacterial counts),MRSA strain 2468 [4]; 2× MIC,≤ 20 h
same,bacterial reduction rate,MRSA strain 2468 [4]; 2× MIC,0.2498 log CFU/h
same,time to eradication (no detectable bacterial counts),MRSA strain 2468 [4]; 4× MIC,≤ 12 h
same,bacterial reduction rate,MRSA strain 2468 [4]; 4× MIC,0.4508 log CFU/h
same,bacterial reduction rate,"S. aureus TISTR 517 [5]; 1× MIC, up to 24 h",0.0496 log CFU/h
same,bacterial reduction rate,"S. aureus TISTR 517 [5]; 2× MIC, up to 24 h",0.1322 log CFU/h
same,time to complete eradication,S. aureus TISTR 517 [5]; 4× MIC,≤ 20 h
same,bacterial reduction rate,S. aureus TISTR 517 [5]; 4× MIC,0.2704 log CFU/h
same,Antibacterial Activity Retention of FN33 AMP (%) Against MRSA Strain 2468,trypsin; 1 h,99.60 ± 0.6%
same,Antibacterial Activity Retention of FN33 AMP (%) Against MRSA Strain 2468,trypsin; 6 h,98.82 ± 0.67%
same,Antibacterial Activity Retention of FN33 AMP (%) Against MRSA Strain 2468,trypsin; 12 h,99.04 ± 1.02%
same,IC50 (DPPH radical scavenging),[6],11.66 ± 2.87 µg/mL
same,Antibacterial Activity Retention of FN33 AMP (%) Against MRSA Strain 2468,"MRSA strain 2468 [7]; with CTAB 1% w/v, 1 h",93.19 ± 0.52 %
same,Antibacterial Activity Retention of FN33 AMP (%) Against MRSA Strain 2468,"MRSA strain 2468 [7]; with CTAB 1% w/v, 6 h",93.17 ± 0.48 %
same,Antibacterial Activity Retention of FN33 AMP (%) Against MRSA Strain 2468,"MRSA strain 2468 [7]; with CTAB 1% w/v, 12 h","92.51 ± 0.69 *^,† %"
same,Antibacterial Activity Retention of FN33 AMP (%) Against MRSA Strain 2468,"MRSA strain 2468 [7]; with SDS 1% w/v, 1 h",117.08 ± 0.78 %
same,Antibacterial Activity Retention of FN33 AMP (%) Against MRSA Strain 2468,"MRSA strain 2468 [7]; with SDS 1% w/v, 6 h",117.39 ± 0.96 %
same,Antibacterial Activity Retention of FN33 AMP (%) Against MRSA Strain 2468,"MRSA strain 2468 [7]; with SDS 1% w/v, 12 h",115.95 ± 0.57 %
same,Antibacterial Activity Retention of FN33 AMP (%) Against MRSA Strain 2468,"MRSA strain 2468 [7]; with Triton X-100 1% w/v, 1 h",81.23 ± 1.04 %
same,Antibacterial Activity Retention of FN33 AMP (%) Against MRSA Strain 2468,"MRSA strain 2468 [7]; with Triton X-100 1% w/v, 6 h",81.69 ± 0.38 %
same,Antibacterial Activity Retention of FN33 AMP (%) Against MRSA Strain 2468,"MRSA strain 2468 [7]; with Triton X-100 1% w/v, 12 h",81.30 ± 0.72 %
